Biological target: T1, Tyrosine-protein phosphatase non-receptor type 1 (Homo sapiens, UniProt P18031)
T1 sequence (P18031 whole entry): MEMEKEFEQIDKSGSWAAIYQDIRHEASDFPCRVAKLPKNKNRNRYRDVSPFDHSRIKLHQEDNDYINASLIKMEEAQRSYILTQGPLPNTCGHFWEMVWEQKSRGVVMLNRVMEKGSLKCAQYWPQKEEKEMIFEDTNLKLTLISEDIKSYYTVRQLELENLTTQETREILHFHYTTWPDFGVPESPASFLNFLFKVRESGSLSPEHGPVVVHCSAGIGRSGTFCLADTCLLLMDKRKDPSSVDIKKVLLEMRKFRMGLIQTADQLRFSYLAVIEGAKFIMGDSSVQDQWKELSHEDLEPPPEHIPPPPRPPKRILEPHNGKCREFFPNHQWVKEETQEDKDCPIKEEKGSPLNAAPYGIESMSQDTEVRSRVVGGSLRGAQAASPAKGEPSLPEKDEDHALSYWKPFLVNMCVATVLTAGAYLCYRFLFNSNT
Assay: Inhibition of PTP1B (unknown origin)

## CC1(C)CC[C@]2(CC(=O)NC(Cc3ccccc3)C(=O)O)CC[C@]3(C)C(=CC[C@@H]4[C@@]5(C)CC[C@H](O)C(C)(C)[C@@H]5CC[C@]43C)[C@@H]2C1 (some centres not stated)
read-out: IC50
  IC50: 570 nM
read-out: pIC50 (converted)
  IC50: 570 nM

## COc1cccc(CC(NC(=O)C[C@]23CCC(C)(C)C[C@H]2C2=CC[C@@H]4[C@@]5(C)CC[C@H](O)C(C)(C)[C@@H]5CC[C@@]4(C)[C@]2(C)CC3)C(=O)O)c1 (some centres not stated)
read-out: IC50
  IC50: 520 nM
read-out: pIC50 (converted)
  IC50: 520 nM

## COc1ccccc1CC(NC(=O)C[C@]12CCC(C)(C)C[C@H]1C1=CC[C@@H]3[C@@]4(C)CC[C@H](O)C(C)(C)[C@@H]4CC[C@@]3(C)[C@]1(C)CC2)C(=O)O (some centres not stated)
read-out: IC50
  IC50: 530 nM
read-out: pIC50 (converted)
  IC50: 530 nM

## CC1(C)CC[C@]2(CCCCC(=O)NC(Cc3ccccc3)C(=O)O)CC[C@]3(C)C(=CC[C@@H]4[C@@]5(C)CC[C@H](OCc6ccc(C(=O)O)cc6)C(C)(C)[C@@H]5CC[C@]43C)[C@@H]2C1 (some centres not stated)
read-out: IC50
  IC50: 150 nM
read-out: pIC50 (converted)
  IC50: 150 nM

## CSCCC(NC(=O)C[C@]12CCC(C)(C)C[C@H]1C1=CC[C@@H]3[C@@]4(C)CC[C@H](O)C(C)(C)[C@@H]4CC[C@@]3(C)[C@]1(C)CC2)C(=O)O (some centres not stated)
read-out: IC50
  IC50: 550 nM
read-out: pIC50 (converted)
  IC50: 550 nM

## CC1(C)CC[C@]2(CC(=O)NC(Cc3cnc[nH]3)C(=O)O)CC[C@]3(C)C(=CC[C@@H]4[C@@]5(C)CC[C@H](O)C(C)(C)[C@@H]5CC[C@]43C)[C@@H]2C1 (some centres not stated)
read-out: IC50
  IC50: 4620 nM
read-out: pIC50 (converted)
  IC50: 4620 nM

## COc1cc(CC(NC(=O)C[C@]23CCC(C)(C)C[C@H]2C2=CC[C@@H]4[C@@]5(C)CC[C@H](O)C(C)(C)[C@@H]5CC[C@@]4(C)[C@]2(C)CC3)C(=O)O)cc(OC)c1 (some centres not stated)
read-out: IC50
  IC50: 630 nM
read-out: pIC50 (converted)
  IC50: 630 nM

## CC1(C)CC[C@]2(CC(=O)NC(Cc3ccccc3Cl)C(=O)O)CC[C@]3(C)C(=CC[C@@H]4[C@@]5(C)CC[C@H](O)C(C)(C)[C@@H]5CC[C@]43C)[C@@H]2C1 (some centres not stated)
read-out: IC50
  IC50: 560 nM
read-out: pIC50 (converted)
  IC50: 560 nM

## CC1(C)CC[C@]2(C(=O)OCCCCCCCCC(=O)O)CC[C@]3(C)C(=CC[C@@H]4[C@@]5(C)CC[C@H](O)C(C)(C)[C@@H]5CC[C@]43C)[C@@H]2C1
read-out: IC50
  IC50: 780 nM
read-out: pIC50 (converted)
  IC50: 780 nM

## Cc1ccc(CC(NC(=O)C[C@]23CCC(C)(C)C[C@H]2C2=CC[C@@H]4[C@@]5(C)CC[C@H](O)C(C)(C)[C@@H]5CC[C@@]4(C)[C@]2(C)CC3)C(=O)O)cc1 (some centres not stated)
read-out: IC50
  IC50: 650 nM
read-out: pIC50 (converted)
  IC50: 650 nM

## CC1(C)CC[C@]2(C(=O)OCCCCC(=O)O)CC[C@]3(C)C(=CC[C@@H]4[C@@]5(C)CC[C@H](O)C(C)(C)[C@@H]5CC[C@]43C)[C@@H]2C1
read-out: IC50
  IC50: 1330 nM
read-out: pIC50 (converted)
  IC50: 1330 nM

## COc1ccc(CC(NC(=O)C[C@]23CCC(C)(C)C[C@H]2C2=CC[C@@H]4[C@@]5(C)CC[C@H](O)C(C)(C)[C@@H]5CC[C@@]4(C)[C@]2(C)CC3)C(=O)O)cc1OC (some centres not stated)
read-out: IC50
  IC50: 820 nM
read-out: pIC50 (converted)
  IC50: 820 nM

## COc1cccc(CC(NC(=O)C[C@]23CCC(C)(C)C[C@H]2C2=CC[C@@H]4[C@@]5(C)CC[C@H](O)C(C)(C)[C@@H]5CC[C@@]4(C)[C@]2(C)CC3)C(=O)O)c1OC (some centres not stated)
read-out: IC50
  IC50: 660 nM
read-out: pIC50 (converted)
  IC50: 660 nM

## CC1(C)CC[C@]2(CC(=O)NC(Cc3ccc([N+](=O)[O-])cc3)C(=O)O)CC[C@]3(C)C(=CC[C@@H]4[C@@]5(C)CC[C@H](O)C(C)(C)[C@@H]5CC[C@]43C)[C@@H]2C1 (some centres not stated)
read-out: IC50
  IC50: 450 nM
read-out: pIC50 (converted)
  IC50: 450 nM

## CC1(C)CC[C@]2(C(=O)Nc3ccc(C(=O)O)cc3)CC[C@]3(C)C(=CC[C@@H]4[C@@]5(C)CC[C@H](O)C(C)(C)[C@@H]5CC[C@]43C)[C@@H]2C1
read-out: IC50
  IC50: 3090 nM
read-out: pIC50 (converted)
  IC50: 3090 nM

## CC1(C)CC[C@]2(C(=O)NC(Cc3ccccc3)C(=O)O)CC[C@]3(C)C(=CC[C@@H]4[C@@]5(C)CC[C@H](O)C(C)(C)[C@@H]5CC[C@]43C)[C@@H]2C1 (some centres not stated)
read-out: IC50
  IC50: 3310 nM
read-out: pIC50 (converted)
  IC50: 3310 nM

## CC1(C)CC[C@]2(C(=O)OCCC(=O)O)CC[C@]3(C)C(=CC[C@@H]4[C@@]5(C)CC[C@H](O)C(C)(C)[C@@H]5CC[C@]43C)[C@@H]2C1
read-out: IC50
  IC50: 2100 nM
read-out: pIC50 (converted)
  IC50: 2100 nM

## CC1(C)CC[C@]2(C(=O)O)CC[C@]3(C)C(=CC[C@@H]4[C@@]5(C)CC[C@H](OCc6ccccc6C(=O)O)C(C)(C)[C@@H]5CC[C@]43C)[C@@H]2C1
read-out: IC50
  IC50: 4580 nM
read-out: pIC50 (converted)
  IC50: 4580 nM

## COc1ccc(CC(NC(=O)C[C@]23CCC(C)(C)C[C@H]2C2=CC[C@@H]4[C@@]5(C)CC[C@H](O)C(C)(C)[C@@H]5CC[C@@]4(C)[C@]2(C)CC3)C(=O)O)cc1 (some centres not stated)
read-out: IC50
  IC50: 600 nM
read-out: pIC50 (converted)
  IC50: 600 nM

## CC1(C)CC[C@]2(CC(=O)NC(CC3=CCc4ccccc43)C(=O)O)CC[C@]3(C)C(=CC[C@@H]4[C@@]5(C)CC[C@H](O)C(C)(C)[C@@H]5CC[C@]43C)[C@@H]2C1 (some centres not stated)
read-out: IC50
  IC50: 590 nM
read-out: pIC50 (converted)
  IC50: 590 nM

## CC1(C)CC[C@]2(C(=O)OCCCCCCC(=O)O)CC[C@]3(C)C(=CC[C@@H]4[C@@]5(C)CC[C@H](O)C(C)(C)[C@@H]5CC[C@]43C)[C@@H]2C1
read-out: IC50
  IC50: 880 nM
read-out: pIC50 (converted)
  IC50: 880 nM

## CC1(C)CC[C@]2(CC(=O)NC(Cc3ccc(Cl)cc3)C(=O)O)CC[C@]3(C)C(=CC[C@@H]4[C@@]5(C)CC[C@H](O)C(C)(C)[C@@H]5CC[C@]43C)[C@@H]2C1 (some centres not stated)
read-out: IC50
  IC50: 610 nM
read-out: pIC50 (converted)
  IC50: 610 nM

## CC1(C)CC[C@]2(C(=O)NC(CCC(=O)O)C(=O)O)CC[C@]3(C)C(=CC[C@@H]4[C@@]5(C)CC[C@H](O)C(C)(C)[C@@H]5CC[C@]43C)[C@@H]2C1 (some centres not stated)
read-out: IC50
  IC50: 16400 nM
read-out: pIC50 (converted)
  IC50: 16400 nM

## CC1(C)CC[C@]2(C(=O)OCCCCCCCCCCC(=O)O)CC[C@]3(C)C(=CC[C@@H]4[C@@]5(C)CC[C@H](O)C(C)(C)[C@@H]5CC[C@]43C)[C@@H]2C1
read-out: IC50
  IC50: 720 nM
read-out: pIC50 (converted)
  IC50: 720 nM

## Cc1ccccc1CC(NC(=O)C[C@]12CCC(C)(C)C[C@H]1C1=CC[C@@H]3[C@@]4(C)CC[C@H](O)C(C)(C)[C@@H]4CC[C@@]3(C)[C@]1(C)CC2)C(=O)O (some centres not stated)
read-out: IC50
  IC50: 550 nM
read-out: pIC50 (converted)
  IC50: 550 nM

## CC1(C)CC[C@]2(C(=O)O)CC[C@]3(C)C(=CC[C@@H]4[C@@]5(C)CC[C@H](Cc6ccccc6)C(C)(C)[C@@H]5CC[C@]43C)[C@@H]2C1
read-out: IC50
  IC50: 2670 nM
read-out: pIC50 (converted)
  IC50: 2670 nM

## CC1(C)CC[C@]2(C(=O)OCCCCCCCCCCCCC(=O)O)CC[C@]3(C)C(=CC[C@@H]4[C@@]5(C)CC[C@H](O)C(C)(C)[C@@H]5CC[C@]43C)[C@@H]2C1
read-out: IC50
  IC50: 590 nM
read-out: pIC50 (converted)
  IC50: 590 nM

## CC1(C)CC[C@]2(CC(=O)NC(Cc3ccc(F)cc3)C(=O)O)CC[C@]3(C)C(=CC[C@@H]4[C@@]5(C)CC[C@H](O)C(C)(C)[C@@H]5CC[C@]43C)[C@@H]2C1 (some centres not stated)
read-out: IC50
  IC50: 570 nM
read-out: pIC50 (converted)
  IC50: 570 nM

## CC1(C)CC[C@]2(C(=O)O)CC[C@]3(C)C(=CC[C@@H]4[C@@]5(C)CC[C@H](Cc6ccccc6C(=O)O)C(C)(C)[C@@H]5CC[C@]43C)[C@@H]2C1
read-out: IC50
  IC50: 2720 nM
read-out: pIC50 (converted)
  IC50: 2720 nM

## CC1(C)CC[C@]2(CC(=O)NC(Cc3ccc4c(c3)OCO4)C(=O)O)CC[C@]3(C)C(=CC[C@@H]4[C@@]5(C)CC[C@H](O)C(C)(C)[C@@H]5CC[C@]43C)[C@@H]2C1 (some centres not stated)
read-out: IC50
  IC50: 440 nM
read-out: pIC50 (converted)
  IC50: 440 nM

## CC1(C)CC[C@]2(CC(=O)NC(Cc3cccc(Cl)c3)C(=O)O)CC[C@]3(C)C(=CC[C@@H]4[C@@]5(C)CC[C@H](O)C(C)(C)[C@@H]5CC[C@]43C)[C@@H]2C1 (some centres not stated)
read-out: IC50
  IC50: 510 nM
read-out: pIC50 (converted)
  IC50: 510 nM
